According to patent publication US9085576B2 (AMGEN INC., priority 2013, dated 2015):

Experiments:
Cathepsin D (Cat D) = Cathepsin D (Cat D) (Homo sapiens (Human), UniProt P07339); experiment: In vitro enzymatic Cathepsin D (Cat D) FRET assay; format: biochemical; conditions: read-out: CatD IC50
Experimental: In Vitro Enzymatic Cathepsin D (Cat D) FRET (Fluorescence Resonance Energy Transfer) Assay
Recombinant Cat D was expressed in CHO cells. The assay buffer for CathepsinD is 0.05 M citrate pH 3.5, 10% DMSO final, 5 mM CHAPS. […] The assays are effectively started by the addition of different FRET substrates (20 nM for Cat D) and the combination is incubated for one hour. The FRET assay is terminated with by addition of Tris buffer, which raises the pH to neutrality, and the fluorescence is determined. […] Proteolytic cleavage of the FRET substrate releases quenching of fluorescence (Cat D excitation 500 nm and emission 580 nm).

[1] = target: Beta Secretase enzyme (BACE) (Homo sapiens (Human), UniProt P56817); experiment: In vitro enzymatic BACE FRET assay; format: biochemical; conditions: read-out: BACE1 Enzyme assay IC50
BACE = BACE (Homo sapiens (Human), UniProt P56817); experiment: In vitro BACE cell-based assay (Aβ40 in conditioned medium, sandwich ELISA)
Sequence of BACE (P56817 46-501, species assumed): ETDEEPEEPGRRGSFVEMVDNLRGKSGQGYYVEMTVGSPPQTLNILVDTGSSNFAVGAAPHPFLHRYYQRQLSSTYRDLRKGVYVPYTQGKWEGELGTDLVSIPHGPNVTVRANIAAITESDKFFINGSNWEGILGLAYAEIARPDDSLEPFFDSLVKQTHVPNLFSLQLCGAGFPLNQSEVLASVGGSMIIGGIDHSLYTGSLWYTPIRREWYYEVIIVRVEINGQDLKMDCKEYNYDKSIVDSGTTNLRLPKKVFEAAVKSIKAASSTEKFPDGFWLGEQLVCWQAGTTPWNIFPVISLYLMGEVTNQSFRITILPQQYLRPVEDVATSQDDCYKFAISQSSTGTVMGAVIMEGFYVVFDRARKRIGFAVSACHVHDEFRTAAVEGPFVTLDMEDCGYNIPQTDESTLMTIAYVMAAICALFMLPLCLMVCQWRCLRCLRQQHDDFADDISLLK

Sequence of Cathepsin D (Cat D) (P07339 65-412, species assumed): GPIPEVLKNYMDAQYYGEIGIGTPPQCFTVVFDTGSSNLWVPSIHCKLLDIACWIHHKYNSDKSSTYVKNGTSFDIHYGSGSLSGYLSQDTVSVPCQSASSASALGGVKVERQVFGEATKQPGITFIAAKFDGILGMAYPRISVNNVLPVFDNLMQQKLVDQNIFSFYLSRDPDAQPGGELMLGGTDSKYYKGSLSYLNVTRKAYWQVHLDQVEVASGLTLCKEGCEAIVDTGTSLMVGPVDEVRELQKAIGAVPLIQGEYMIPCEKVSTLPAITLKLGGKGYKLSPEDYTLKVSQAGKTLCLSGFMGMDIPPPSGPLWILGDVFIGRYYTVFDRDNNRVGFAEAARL
Sequence of Beta Secretase enzyme (BACE) (P56817 46-501): as the sequence (P56817 46-501, species assumed) above

Row | SMILES | IC50 (Cathepsin D (Cat D)) | IC50 [1] | IC50 (BACE)
1 | N#Cc1cnc(C(=O)Nc2ccc(Cl)c([C@@]3(CF)N=C(N)O[C@@H]4C[C@@H]43)c2)c(CO)c1 [Example 387, N-(3-((1R,5S,6R)-3-amino-5-(fluoromethyl)-2-oxa-4-azabicyclo[4.1.0]hept-3-en-5-yl)-4-chlorophenyl)-5-cyano-3-(hydroxymethyl)picolinamide] | 352 µM | 0.0391 µM | 0.0145 µM
2 | CN(C)c1cc(C#N)cnc1C(=O)Nc1ccc(F)c([C@@]2(C(F)F)N=C(N)O[C@@H]3C[C@@H]32)c1 [Example 389, N-(3-((1R,5S,6R)-3-amino-5-(difluoromethyl)-2-oxa-4-azabicyclo[4.1.0]hept-3-en-5-yl)-4-fluorophenyl)-5-cyano-3-(dimethylamino)picolinamide] | 732 µM | 0.0915 µM | 0.0747 µM
3 | N#Cc1cnc2c(Nc3ccc(F)c([C@@]4(CF)N=C(N)O[C@@H]5C[C@@H]54)c3)ncnc2c1 [Example 393, 4-((3-((1R,5S,6R)-3-amino-5-(fluoromethyl)-2-oxa-4-azabicyclo[4.1.0]hept-3-en-5-yl)-4-fluorophenyl)amino)pyrido[3,2-d]pyrimidine-7-carbonitrile] | 147 µM | 0.198 µM | 0.0243 µM
4 | CC(C)c1cc(C#N)cnc1C(=O)Nc1ccc(F)c([C@@]2(C(F)F)N=C(N)O[C@@H]3C[C@@H]32)c1 [Example 394, N-(3-((1R,5S,6R)-3-amino-5-(difluoromethyl)-2-oxa-4-azabicyclo[4.1.0]hept-3-en-5-yl)-4-fluorophenyl)-5-cyano-3-isopropylpicolinamide] | 1070 µM | 0.134 µM | 0.289 µM
5 | N#Cc1cnc(C(=O)Nc2ccc(F)c([C@@]3(C(F)F)N=C(N)O[C@@H]4C[C@@H]43)c2)c(C(F)F)c1 [Example 395, N-(3-((1R,5S,6R)-3-amino-5-(difluoromethyl)-2-oxa-4-azabicyclo[4.1.0]hept-3-en-5-yl)-4-fluorophenyl)-5-cyano-3-(difluoromethyl)picolinamide] | 477 µM | 0.0144 µM | 0.0737 µM
6 | N#Cc1cnc(C(=O)Nc2ccc(F)c([C@@]3(C(F)F)N=C(N)O[C@@H]4C[C@@H]43)c2)c(CO)c1 [Example 396, N-(3-((1R,5S,6R)-3-amino-5-(difluoromethyl)-2-oxa-4-azabicyclo[4.1.0]hept-3-en-5-yl)-4-fluorophenyl)-5-cyano-3-(hydroxymethyl)picolinamide] | 198 µM | 0.017 µM | 0.151 µM
7 | COc1cc(C#N)cnc1C(=O)Nc1ccc(Cl)c([C@@]2(CF)N=C(N)O[C@@H]3C[C@@H]32)c1 [Example 397, N-(3-((1R,5S,6R)-3-amino-5-(fluoromethyl)-2-oxa-4-azabicyclo[4.1.0]hept-3-en-5-yl)-4-chlorophenyl)-5-cyano-3-methoxypicolinamide] | > 400 µM | 0.081 µM | 0.009 µM
8 | Cc1cc(NC(=O)c2ncc(C#N)cc2F)cc([C@@]2(C(F)F)N=C(N)O[C@@H]3C[C@@H]32)c1F [Example 398, N-(3-((1R,5S,6R)-3-amino-5-(difluoromethyl)-2-oxa-4-azabicyclo[4.1.0]hept-3-en-5-yl)-4-fluoro-5-methylphenyl)-5-cyano-3-fluoropicolinamide] | 690 µM | 0.0335 µM | 0.0123 µM
9 | COc1cc(C#N)cnc1C(=O)Nc1cc(C)c(F)c([C@@]2(C(F)F)N=C(N)O[C@@H]3C[C@@H]32)c1 [Example 399, N-(3-((1R,5S,6R)-3-amino-5-(difluoromethyl)-2-oxa-4-azabicyclo[4.1.0]hept-3-en-5-yl)-4-fluoro-5-methylphenyl)-5-cyano-3-methoxypicolinamide] | 1090 µM | 0.0706 µM | 0.0208 µM
10 | NC1=N[C@@](c2cc(NC(=O)c3ccc(C#CC4CC4)cn3)ccc2F)(C(F)F)[C@H]2C[C@H]2O1 [Example 405, N-(3-((1R,5S,6R)-3-amino-5-(difluoromethyl)-2-oxa-4-azabicyclo[4.1.0]hept-3-en-5-yl)-4-fluorophenyl)-5-(cyclopropylethynyl)picolinamide] | 399 µM | 0.0237 µM | 0.215 µM
11 | NC1=N[C@@](c2cc(Nc3nccc4cc(C#CC5CC5)cnc34)ccc2F)(C(F)F)[C@H]2C[C@H]2O1 [Example 406, (1R,5S,6R)-5-(5-((3-(cyclopropylethynyl)-1,7-naphthyridin-8-yl)amino)-2-fluorophenyl)-5-(difluoromethyl)-2-oxa-4-azabicyclo[4.1.0]hept-3-en-3-amine] | 8910 µM | 0.0759 µM | 0.861 µM
12 | NC1=N[C@@](c2cc(NC(=O)c3cnc(C#CC4CC4)cn3)ccc2F)(C(F)F)[C@H]2C[C@H]2O1 [Example 407, N-(3-((1R,5S,6R)-3-amino-5-(difluoromethyl)-2-oxa-4-azabicyclo[4.1.0]hept-3-en-5-yl)-4-fluorophenyl)-5-(cyclopropylethynyl)pyrazine-2-carboxamide] | 170 µM | 0.0296 µM | 0.301 µM
13 | NC1=N[C@@](c2cc(Nc3ncc(F)c4cc(C#CC5CC5)cnc34)ccc2F)(C(F)F)[C@H]2C[C@H]2O1 [Example 408, (1R,5S,6R)-5-(5-((3-(cyclopropylethynyl)-5-fluoro-1,7-naphthyridin-8-yl)amino)-2-fluorophenyl)-5-(difluoromethyl)-2-oxa-4-azabicyclo[4.1.0]hept-3-en-3-amine] | 347 µM | 0.0463 µM | 1.58 µM
14 | CC1(C#Cc2ccc(C(=O)Nc3ccc(F)c([C@@]4(C(F)F)N=C(N)O[C@@H]5C[C@@H]54)c3)nc2)COC1 [Example 409, N-(3-((1R,5S,6R)-3-amino-5-(difluoromethyl)-2-oxa-4-azabicyclo[4.1.0]hept-3-en-5-yl)-4-fluorophenyl)-5-((3-methyloxetan-3-yl)ethynyl)picolinamide] | 748 µM | 0.327 µM | 0.514 µM
15 | NC1=N[C@@](c2cc(NC(=O)c3cnc(OCC#CC4CC4)cn3)ccc2F)(C(F)F)[C@H]2C[C@H]2O1 [Example 411, N-(3-((1R,5S,6R)-3-amino-5-(difluoromethyl)-2-oxa-4-azabicyclo[4.1.0]hept-3-en-5-yl)-4-fluorophenyl)-5-((3-cyclopropylprop-2-yn-1-yl)oxy)pyrazine-2-carboxamide] | 360 µM | 0.0076 µM | 0.112 µM
16 | NC1=N[C@@](c2cc(NC(=O)c3cnc(OCC4CCOCC4)cn3)ccc2F)(C(F)F)[C@H]2C[C@H]2O1 [Example 412, N-(3-((1R,5S,6R)-3-amino-5-(difluoromethyl)-2-oxa-4-azabicyclo[4.1.0]hept-3-en-5-yl)-4-fluorophenyl)-5-((tetrahydro-2H-pyran-4-yl)methoxy)pyrazine-2-carboxamide] | 640 µM | 0.129 µM | 0.984 µM
17 | C=CCOc1cnc(C(=O)Nc2ccc(F)c([C@@]3(C(F)F)N=C(N)O[C@@H]4C[C@@H]43)c2)cn1 [Example 414, 5-(allyloxy)-N-(3-((1R,5S,6R)-3-amino-5-(difluoromethyl)-2-oxa-4-azabicyclo[4.1.0]hept-3-en-5-yl)-4-fluorophenyl)pyrazine-2-carboxamide] | 924 µM | 0.048 µM | 0.146 µM
18 | NC1=N[C@@](c2cc(NC(=O)c3cnc(OCC4CCCCC4)cn3)ccc2F)(C(F)F)[C@H]2C[C@H]2O1 [Example 416, N-(3-((1R,5S,6R)-3-amino-5-(difluoromethyl)-2-oxa-4-azabicyclo[4.1.0]hept-3-en-5-yl)-4-fluorophenyl)-5-(cyclohexylmethoxy)pyrazine-2-carboxamide] | 228 µM | 0.0121 µM | 2.5 µM
19 | CCOc1cnc(C(=O)Nc2ccc(F)c([C@@]3(C(F)F)N=C(N)O[C@@H]4C[C@@H]43)c2)cn1 [Example 417, N-(3-((1R,5S,6R)-3-amino-5-(difluoromethyl)-2-oxa-4-azabicyclo[4.1.0]hept-3-en-5-yl)-4-fluorophenyl)-5-ethoxypyrazine-2-carboxamide] | 1470 µM | 0.115 µM | 0.0876 µM
20 | NC1=N[C@@](c2cc(NC(=O)c3cnc(OCC4CCCC4)cn3)ccc2F)(C(F)F)[C@H]2C[C@H]2O1 [Example 418, N-(3-((1R,5S,6R)-3-amino-5-(difluoromethyl)-2-oxa-4-azabicyclo[4.1.0]hept-3-en-5-yl)-4-fluorophenyl)-5-(cyclopentylmethoxy)pyrazine-2-carboxamide] | 891 µM | 0.0261 µM | 0.916 µM
21 | NC1=N[C@@](c2cc(NS(=O)(=O)c3ccc(Cl)cn3)ccc2F)(C(F)F)[C@H]2C[C@H]2O1 [Example 421, N-(3-((1R,5S,6R)-3-amino-5-(difluoromethyl)-2-oxa-4-azabicyclo[4.1.0]hept-3-en-5-yl)-4-fluorophenyl)-5-chloropyridine-2-sulfonamide] | 224 µM | 14.2 µM | > 15.6 µM
22 | COC[C@H](C)NC(=O)c1ccc(F)c([C@]2(C(F)F)N=C(N)O[C@H]3C[C@H]32)c1 [Example 427, 3-((1S,5R,6S)-3-Amino-5-(difluoromethyl)-2-oxa-4-azabicyclo[4.1.0]hept-3-en-5-yl)-4-fluoro-N—((S)-1-methoxypropan-2-yl)benzamide] | > 400 µM | > 40 µM | > 15.6 µM
23 | COC[C@H](C)NC(=O)c1ccc(F)c([C@@]2(C(F)F)N=C(N)O[C@@H]3C[C@@H]32)c1 [Example 428, 3-((1R,5S,6R)-3-Amino-5-(difluoromethyl)-2-oxa-4-azabicyclo[4.1.0]hept-3-en-5-yl)-4-fluoro-N—((S)-1-methoxypropan-2-yl)benzamide] | 1520 µM | > 40 µM | > 15.6 µM
24 | CC#Cc1cncc(-c2ccc(F)c([C@@]3(C(F)F)N=C(N)O[C@@H]4C[C@@H]43)c2)c1 [Example 429, (1R,5S,6R)-5-(difluoromethyl)-5-(2-fluoro-5-(5-(prop-1-yn-1-yl)pyridin-3-yl)phenyl)-2-oxa-4-azabicyclo[4.1.0]hept-3-en-3-amine] | 72.9 µM | 1.05 µM | 3.36 µM
